Measurements taken from PubChem BioAssay AID1996.
Converted amounts (≈) assume the structure as drawn.

Details: buffer; pH 7.4; 200.0 µM

solubility kinetic	Structure (SMILES)
2.5 µg/mL (≈ 7.41 µM)	COc1ccc2c(c1)c1ncn(Cc3ccc(F)cc3)c(=O)c1n2C
> 50.9 µg/mL	CN(Cc1ccc(F)cc1)C(=O)CCc1nnc(-c2ccccc2)o1
> 41.1 µg/mL	COc1ccccc1NC(=O)Nc1c(C)nn(C)c1C
0.3 µg/mL (≈ 1.02 µM)	Cc1ccc(NC(=O)CCc2nc3ccccc3[nH]2)cc1C
3.7 µg/mL (≈ 9.01 µM)	CCN(c1ccccc1)S(=O)(=O)c1ccc(C(=O)Nc2ccccc2OC)cc1
13 µg/mL (≈ 42.6 µM)	OC(C#CCN1CCCCC1)(c1ccccc1)c1ccccc1
21.6 µg/mL (≈ 55.6 µM)	NS(=O)(=O)c1cccc(C(=O)OCC(=O)NC2CCCc3ccccc32)c1 (stereo unspecified)
37.9 µg/mL (≈ 139 µM)	O=C(c1ccc(F)c(F)c1)N1CCCc2ccccc21
34.7 µg/mL (≈ 148 µM)	CCN(C(=O)N1CCOCC1)c1ccccc1
> 41.9 µg/mL	Cc1cc(C)cc(NS(=O)(=O)c2ccc(F)cc2)c1
3.3 µg/mL (≈ 12.1 µM)	O=C(Nc1cccc(Cl)c1)C1CC1c1ccccc1 (stereo unspecified)
> 56.5 µg/mL	CC(C)(Oc1ccc(Cl)cc1)C(=O)N1CCN(C(=O)c2ccco2)CC1
32 µg/mL (≈ 114 µM)	CC(C)n1cnc2cc(NCc3ccccc3O)ccc21
3.7 µg/mL (≈ 10.7 µM)	CC1(C)C(c2ccccc2)=NC(c2ccc(Br)cc2)N1O (stereo unspecified)
1.3 µg/mL (≈ 4.11 µM)	COc1ccc(CSc2nc3ccccc3c(=O)[nH]2)cc1F
34.4 µg/mL (≈ 133 µM)	CC(=O)Nc1ccc(-c2cn3c(n2)SCC3)cc1
24.2 µg/mL (≈ 67.9 µM)	COc1cc(NC(=O)CCCn2c(=O)oc3ccccc32)cc(OC)c1
> 57.1 µg/mL	O=C1OC(N2C(=O)CC[C@H]2C(=O)Nc2ccc3c(c2)OCO3)c2ccccc21 (stereo partly specified)
27.6 µg/mL (≈ 91.9 µM)	Cc1ccc(CNC(=O)c2ccc(OCC(C)C)cc2)n1C
4.4 µg/mL (≈ 15.4 µM)	Oc1ccc(-c2csc(Nc3ccccn3)n2)c(O)c1

solubility kinetic	Structure (SMILES)
< 0.4 µg/mL	O=C(COc1ccccc1Cl)Nc1ccc2c(c1)C(=O)NC2=O
0.8 µg/mL (≈ 2.75 µM)	Cc1ccc(OCC(=O)Nc2cccnc2Cl)cc1C
> 51.1 µg/mL	COC(=O)c1ccccc1NC(=O)CCn1c(=O)oc2ccccc21
36 µg/mL (≈ 118 µM)	Cc1ccc(NS(=O)(=O)c2cccc3nsnc23)cc1
13 µg/mL (≈ 35.8 µM)	CCN(CC)S(=O)(=O)c1ccc(NC(=S)Nc2ccccc2)cc1
47.2 µg/mL (≈ 148 µM)	COc1ccccc1Nc1c2c(nc3ccc(N)cc13)CCCC2
7.5 µg/mL (≈ 27.4 µM)	O=C(/C=C/c1cccc(F)c1)OCC(=O)c1ccc[nH]1
> 47.2 µg/mL	Cc1ccccc1-c1nnc(CS(=O)(=O)c2ccccc2)o1
61.8 µg/mL (≈ 133 µM)	CCOc1ccc(C2/C(=C(/O)c3ccc4c(c3)CC(C)O4)C(=O)C(=O)N2CC2CCCO2)cc1 (stereo unspecified)
< 0.2 µg/mL	CC(C)(C)c1cc(NC(=O)Nc2ccccc2OC(F)(F)F)no1
35.6 µg/mL (≈ 113 µM)	COc1ccc(CN2CC(C(N)=O)Oc3ccccc32)cc1F (stereo unspecified)
40.8 µg/mL (≈ 136 µM)	N#CC1=C(N)Oc2c(ccc3cccnc23)C1c1ccncc1 (stereo unspecified)
6.8 µg/mL (≈ 19.9 µM)	O=c1c2c3c(sc2nc(NCCO)n1-c1ccccc1)CCCC3
> 48.7 µg/mL	CCN(C(=O)c1cn(C)c(=O)c2ccccc12)c1ccccc1F
4.8 µg/mL (≈ 13.4 µM)	CCOCCCNC(=O)c1cc2c(=O)n(CC)c3ccccc3c2s1
2.5 µg/mL (≈ 7.05 µM)	COc1ccc(C(=O)NCCc2nc3cc([N+](=O)[O-])ccc3n2C)cc1
38.2 µg/mL (≈ 123 µM)	CC(C)N(Cc1ccccc1)C(=O)c1ccc2nsnc2c1
0.8 µg/mL (≈ 2.48 µM)	Cc1ccc(N2C(=O)Nc3ccccc3S2(=O)=O)cc1Cl
3.8 µg/mL (≈ 11.7 µM)	COc1ccc(Cn2c(C)nc3ccc([N+](=O)[O-])cc3c2=O)cc1
> 48.9 µg/mL	CN1C(=O)c2ccccc2C(C(=O)O)C1c1cccc([N+](=O)[O-])c1 (stereo unspecified)

solubility kinetic	Structure (SMILES)
0.7 µg/mL (≈ 2.66 µM)	O=C(Nc1ccc2ccccc2c1)c1ccccc1O
> 53.9 µg/mL	COCC(C)NC(=O)c1ccc2c(c1)S(=O)(=O)c1ccccc1C2=O (stereo unspecified)
4.1 µg/mL (≈ 11.8 µM)	O=C(CCCNC(=O)c1ccc(Cl)cc1)NCc1ccc(F)cc1
22 µg/mL (≈ 68 µM)	O=C(Nc1ccccc1)C1CCCN1C(=O)NCc1ccccc1 (stereo unspecified)
> 73.1 µg/mL	CC(C)[C@H](NS(=O)(=O)c1ccccc1F)C(=O)OCC(=O)Nc1cccc(S(N)(=O)=O)c1
5.1 µg/mL (≈ 18.9 µM)	CC1(C)CN(C(=S)Nc2ccc(F)cc2F)C1=O
> 46.4 µg/mL	CCOc1cc(/C=C(\C#N)C(=O)Nc2ccccn2)ccc1O
22.4 µg/mL	COc1cccc(-c2nc(CCl)cs2)c1.Cl
< 0.4 µg/mL	O=C(c1cccs1)N1CCN=C1SCc1ccc(Cl)cc1
8.1 µg/mL (≈ 24.1 µM)	O=C(NC(=S)Nc1cccnc1)c1cccc(Br)c1
31.6 µg/mL (≈ 88.7 µM)	COc1cccc(C(=O)CC(=O)C(=O)Nc2cccc([N+](=O)[O-])c2C)c1
5.9 µg/mL (≈ 17.3 µM)	COc1cc(C(=O)NC2CCCc3ccccc32)cc(OC)c1OC (stereo unspecified)
1.7 µg/mL (≈ 6.43 µM)	Oc1ccc(-c2cnc(-c3ccc(O)cc3)nc2)cc1
38.3 µg/mL (≈ 144 µM)	O=C1c2ccccc2C(O)(c2ccccc2)N1C1CC1 (stereo unspecified)
> 43.5 µg/mL	CN(NC(=O)c1ccccc1F)c1ccc([N+](=O)[O-])cn1
0.8 µg/mL (≈ 2.32 µM)	CC(=O)Nc1ccc(NC(=O)C(c2ccccc2)c2ccccc2)cc1
1.2 µg/mL (≈ 3.61 µM)	Clc1ccccc1C1CC(c2ccccc2)=Nc2ccccc2N1 (stereo unspecified)
46.3 µg/mL (≈ 149 µM)	CC(OC(=O)c1ccc2noc(-c3ccccc3)c2c1)C(N)=O (stereo unspecified)
47.5 µg/mL (≈ 149 µM)	CN(Cc1nc(-c2ccc(Cl)cc2)no1)C(=O)c1ccco1

Further lines, the molecule ahead of its results:

Structure (SMILES)	solubility kinetic
O=C(COC(=O)c1cccc(OC(F)F)c1)Nc1cccc(S(=O)(=O)N2CCCC2)c1	10.9 µg/mL (≈ 24 µM)
NC(=S)c1cc2cc(Cl)ccc2oc1=O	1.6 µg/mL (≈ 6.68 µM)
CC(C)NC(=O)COC(=O)c1ccc(Cl)c(S(N)(=O)=O)c1	> 50.2 µg/mL
N=C(N=C(N)N)N1CCc2ccccc21	> 30.5 µg/mL
O=C(Nc1cccnc1Cl)c1cccs1	> 35.8 µg/mL
CC(=O)c1cccc(NC(=O)C2C3C=CC(C3)C2C(=O)O)c1 (stereo unspecified)	> 44.9 µg/mL
Fc1ccc(N2CCN(Cc3cnc(Cl)s3)CC2)cc1	45.9 µg/mL (≈ 147 µM)
COc1cc(/C=C/C(=O)OCC(=O)NC2CC2)cc(OC)c1OC	> 50.3 µg/mL
CC(C)Oc1ccc(CCN=C(N)N=C(N)N)cc1Cl.Cl	> 50.1 µg/mL
Cc1ccc(NC(=O)C2CC3CCC2C3)c(Br)c1 (stereo unspecified)	1.9 µg/mL (≈ 6.16 µM)
COCCOc1cc(COC)nc(-c2cccc(C)c2)n1	25.3 µg/mL (≈ 87.7 µM)
CCNC(=S)N1CCN(Cc2ccc3c(c2)OCO3)CC1	> 46.1 µg/mL
O=C(NC1CCCCC1)c1cccc(S(=O)(=O)N2CCCCC2)c1	5.6 µg/mL (≈ 16 µM)
COc1ccc(C(O)Cn2ccsc2=NC(C)=O)cc1 (stereo unspecified)	41.3 µg/mL (≈ 141 µM)
CN1C2CCC1CC(NS(=O)(=O)c1cccc(C(F)(F)F)c1)C2 (stereo unspecified)	48.3 µg/mL (≈ 139 µM)
Cc1ccc(NC(=O)CN2CCCCCC2)cc1[N+](=O)[O-]	1.2 µg/mL (≈ 4.12 µM)
O=C(NCCO)/C(=C/c1cccc([N+](=O)[O-])c1)NC(=O)c1ccco1	> 51.8 µg/mL
Cc1ccc2c(c1)NC(=O)c1cccc([N+](=O)[O-])c1CO2	7 µg/mL (≈ 24.6 µM)
Cc1noc(C)c1S(=O)(=O)N1CCCC1C(=O)O (stereo unspecified)	> 41.1 µg/mL

Structure (SMILES)	solubility kinetic
O=C(O)/C=C/C(=O)NCCc1ccc(Cl)cc1	> 38.1 µg/mL
O=S(=O)(c1ccc(Cl)cc1)N1CCCCC1c1cccnc1 (stereo unspecified)	47.7 µg/mL (≈ 142 µM)
COc1ccc(Cn2cc([N+](=O)[O-])nc2C)cc1[N+](=O)[O-]	> 43.8 µg/mL
O=C(OCC(=O)N1CCCC1)c1cc([N+](=O)[O-])ccc1Cl	> 46.9 µg/mL
CC(=O)N1CCN(S(=O)(=O)c2ccc(Cl)cc2F)CC1	> 48.1 µg/mL
COC(=O)[C@H](C)NC(=O)Nc1cccc(Br)c1	> 45.2 µg/mL
COc1ccc(CNC(=O)C(=O)NCCCn2ccnc2)cc1	> 47.5 µg/mL
Cc1ccc(O)c(NC(=O)c2cc(C)no2)c1	> 34.8 µg/mL
Cl.O=C(O)C1=CCNCC1	> 24.5 µg/mL
Cc1cccc(Nc2nc(NCc3ccco3)nc(N)c2[N+](=O)[O-])c1	< 0.1 µg/mL
CC1Cc2ccccc2N1C(=O)CN1CCC(C(N)=O)CC1 (stereo unspecified)	> 45.2 µg/mL
COc1cccc(C(=O)N2CCN=C2SC)c1	35.1 µg/mL (≈ 140 µM)
CC1CCCC(C)N1C(=O)COC(=O)CCC1CCCC1 (stereo unspecified)	30.1 µg/mL (≈ 102 µM)
O=C(NCc1cccc(Cl)c1)C1CCCO1 (stereo unspecified)	31.3 µg/mL (≈ 131 µM)
CC(C)(C)NC(=O)COC(=O)c1ccc(Cl)cc1O	7.3 µg/mL (≈ 25.5 µM)
CC(=O)c1c(C)oc2ccc(NS(=O)(=O)c3ccc(F)cc3C)cc12	< 0.8 µg/mL
O=c1[nH]c(/C=C\c2ccc(O)c(Cl)c2)nc(O)c1[N+](=O)[O-]	44 µg/mL (≈ 142 µM)
Cc1ccc(C23CC4CC(CC(C(=O)N(C)C)(C4)C2)C3)cc1	2.4 µg/mL (≈ 8.07 µM)
O=C(NCc1ccccn1)C(=O)NCC(c1ccco1)N1CCOCC1 (stereo unspecified)	> 53.8 µg/mL

Structure (SMILES)	solubility kinetic
CCO.C[C@H]1c2cccc(O)c2C(O)=C2C(=O)[C@]3(O)C(O)=C(C(N)=O)C(=O)[C@@H](N(C)C)[C@@H]3[C@@H](O)[C@@H]21.Cl.O	> 76.9 µg/mL
COc1ccc(C(C)C)cc1S(=O)(=O)NCC1CCCO1 (stereo unspecified)	44.3 µg/mL (≈ 141 µM)
Cc1cccc(-n2c(=S)[nH]c3nc4c(cc3c2=O)COC(C)(C)C4)c1	1.7 µg/mL (≈ 4.81 µM)
CCN(CC)CCCNc1cc(C)nc2cc(-c3cccs3)nn12	> 51.5 µg/mL
Cc1cc2c(Nc3cccc(O)c3)ncnc2s1.Cl	41.7 µg/mL
O=C(COc1ccccc1)NCC(=O)NC1CCCCC1	> 43.6 µg/mL
Cc1onc(C(=O)Nc2ccccc2C(F)(F)F)c1[N+](=O)[O-]	> 47.3 µg/mL
COc1ccc(CCC(C)NCc2cc(OC)cc(OC)c2)cc1 (stereo unspecified)	38.7 µg/mL (≈ 117 µM)
O=C(COC(=O)C1=COCCO1)NCc1ccc(Cl)cc1	44.7 µg/mL (≈ 143 µM)
N#Cc1c(N2CCCC(O)C2)nc(N)c2c(N)nc3c(c12)CC(=O)N3C12CC3CC(CC(C3)C1)C2 (stereo unspecified)	2.4 µg/mL (≈ 5.07 µM)
O=C(c1cc(-c2ccc(O)cc2)on1)N1CCCCCC1	> 42.9 µg/mL
CC(=O)Nc1ccc(NC(=O)COC(=O)c2ccc(S(=O)(=O)NCc3ccco3)cc2)cc1	8.9 µg/mL (≈ 18.9 µM)
Cc1ccccc1C(=O)N1CCC(C(=O)NC2CCCC2)CC1	38.6 µg/mL (≈ 123 µM)
C=CCN=C1CCCc2c1[nH]c1ccc(C)cc21	10.3 µg/mL (≈ 43.2 µM)
N#C/C(=C\C=C\c1ccccc1)C(=O)N1CCCC1	7.3 µg/mL (≈ 28.9 µM)
O=C(CN1C(=O)NC2(CCCCCC2)C1=O)NCc1ccc(Cl)cc1	23.5 µg/mL (≈ 64.6 µM)
COc1ccc(NC(=O)CN2C(=O)NC(C)(c3ccc4c(c3)OCCO4)C2=O)cc1S(N)(=O)=O (stereo unspecified)	> 73.6 µg/mL
O=C(CN1CCOCC1)NCc1ccccc1Cl	> 40.3 µg/mL
CN(C)S(=O)(=O)N1CCN(C(=O)c2ccc3c(c2)OCO3)CC1	> 51.2 µg/mL
